The target in this experiment is T1, human alpha 7-wt nAChR (Homo sapiens, UniProt P36544).
T1 construct: expressed in transfected cells
As to the kind of experiment: Ca2+ flux imaging (FDSS) (protocol B). It counts as cell-based. As to conditions: for EC50: read-out: pEC50 (converted); for Emax: read-out: % Efficacy. As for the experimental part:
Example D.1 : Ca^2+ flux imaging (FDSS) (protocol B)
• a) Assay buffer Hanks buffered saline solution (HBSS, Invitrogen, Belgium), supplemented with 10 mM HEPES (Invitrogen, Belgium), CaCl2 to a final concentration of 5 mM, 0.1 % Bovine serum albumin (Sigma-Aldrich NV, Belgium). • b) Calcium-sensitive dye - Fluo-4AM Fluo-4AM (Molecular Probes, USA) was dissolved in DMSO containing 10% Pluronic acid (Molecular Probes, USA) to give a stock solution which was diluted in assay buffer supplemented with 5 mM probenicid (Sigma, Aldrich NV, Belgium) to give a final concentration of 2 µM • c) 384-well plates Black-sided, transparent bottomed 384 well plates coated with poly-D-lysine, PDL pre-coated (Coming, Incorporated, USA) • d) Calcium flux measurement A Functional drug screening system (FDSS, Hamamatsu) was used to measure intracellular free-calcium flux signals.
Monolayers of human alpha 7-wt nAChR-expressing cells were grown in black-sided, transparent bottomed 384 well plates coated with PDL for 24 hours prior to loading with a fluorescent calcium indicator, fluo-4AM for up to 120 minutes.
PAM activity was detected in real time by applying the compounds to be tested to the loaded cells along with an alpha 7 nicotinic receptor agonist during constant monitoring of cellular fluorescence in a FDSS. Compounds giving peak fluorescent responses greater than the response due to agonist alone, were consideted to be alpha 7 nAChR PAMs. The alpha 7 nicotinic receptor agonist was choline, applied at a sub-maximal concentration of 100 µM. In a further setting of the present invention the compounds were applied prior to the alpha 7 nicotinic receptor agonist, in a particular 10 minutes prior to the agonist.
A control response to choline was calculated on each plate from the difference in peak in fluorescence in wells receiving either choline or assay buffer alone. Compounds of the present invention were tested at a concentration range from 0.01 µM to 30 µM. Compounds were considered to have an interesting activity when they potentiated the choline signal at least with 200 % when tested at a concentration of 30 µM (the efficacy of 100 µM choline was defined as 100% in the absence of a PAM). An EC50 (or pEC50) was determined as a concentration relating to half the maximal effect, when a clear sigmoidal curve with top plateau was obtained.
In general terms: A change in cytosolic calcium serves as a functional read-out for many receptors and channels.

Where two headings read alike, the source gives them in different places.

T1 sequence (P36544 23-502): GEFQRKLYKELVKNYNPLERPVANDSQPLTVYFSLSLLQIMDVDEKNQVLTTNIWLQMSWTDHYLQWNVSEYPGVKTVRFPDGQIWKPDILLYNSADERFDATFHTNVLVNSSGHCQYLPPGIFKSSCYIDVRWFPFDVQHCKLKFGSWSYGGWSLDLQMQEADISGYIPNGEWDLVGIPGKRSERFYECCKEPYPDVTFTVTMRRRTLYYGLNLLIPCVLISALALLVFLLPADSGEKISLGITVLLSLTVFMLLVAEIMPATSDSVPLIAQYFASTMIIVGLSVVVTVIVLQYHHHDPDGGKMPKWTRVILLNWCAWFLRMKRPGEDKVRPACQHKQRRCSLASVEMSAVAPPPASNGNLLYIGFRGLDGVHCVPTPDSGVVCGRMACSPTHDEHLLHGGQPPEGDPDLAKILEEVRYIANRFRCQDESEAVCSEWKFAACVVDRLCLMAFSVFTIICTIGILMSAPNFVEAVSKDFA

Turning to `Cc1cc(-c2ccc(N3C[C@@H](C)O[C@@H](C)C3)c(F)c2CNC(=O)C(C)C)cc(C)n1` [Compound 41], the EC50 (Ca2+ assay as described in D.1) is 575 nM.

In the case of `Cc1cc(-c2ccc(N3C[C@@H](C)O[C@@H](C)C3)c(F)c2CNC(=O)C2CC2)cc(C)n1` [Compound 42], under “Ca2+ assay as described in D.1”, the EC50 was 1170 nM.

`Cc1cc(-c2ccc(N3C[C@@H](C)O[C@@H](C)C3)c(F)c2CNC(=O)CC(C)C)cc(C)n1` [Compound 43]: the EC50 (Ca2+ assay as described in D.1) was 120 nM.

In the case of `Cc1cc(-c2ccc(N3C[C@@H](C)O[C@@H](C)C3)c(F)c2CNC(=O)CCCC(F)(F)F)cc(C)n1` [Compound 44], the EC50 (Ca2+ assay as described in D.1) is 316 nM.

On to `Cc1cc(-c2ccc(N3C[C@@H](C)O[C@@H](C)C3)c(F)c2CNC(=O)CC2CCC2)cc(C)n1` [Compound 45], for which the EC50 (Ca2+ assay as described in D.1) is 138 nM.

`Cc1cc(-c2ccc(N3C[C@@H](C)O[C@@H](C)C3)c(F)c2CNC(=O)C2CCCCC2)cc(C)n1` [Compound 46]: the EC50 (Ca2+ assay as described in D.1) was 91.2 nM.

For the compound `Cc1cc(-c2ccc(N3C[C@@H](C)O[C@@H](C)C3)c(F)c2CNC(=O)CC(C)(C)C)cc(C)n1` [Compound 48], the EC50 (Ca2+ assay as described in D.1) was 24 nM.

`Cc1cc(-c2ccc(N3C[C@@H](C)O[C@@H](C)C3)c(F)c2CNC(=O)c2cnc(Cl)cc2Cl)cc(C)n1` [Compound 51]: the EC50 (Ca2+ assay as described in D.1) is 148 nM.

In the case of `Cc1cc(-c2ccc(N3C[C@@H](C)O[C@@H](C)C3)c(F)c2CNC(=O)c2cccc(Cl)c2F)cc(C)n1` [Compound 52], the EC50 (Ca2+ assay as described in D.1) was 479 nM.

In the case of `Cc1cc(-c2ccc(N3CCO[C@@H](C(F)(F)F)C3)c(F)c2CNC(=O)C(C)C)cc(C)n1` [Compound 56], the EC50 (Ca2+ assay as described in D.1) is 155 nM.

Take `Cc1cc(-c2ccc(N3CCO[C@@H](C(F)(F)F)C3)c(F)c2CNC(=O)c2cc(C)on2)cc(C)n1` [Compound 57]: the EC50 (Ca2+ assay as described in D.1) is 234 nM.

`Cc1cc(-c2ccc(N3CCO[C@@H](C(F)(F)F)C3)c(F)c2CNC(=O)c2conc2C)cc(C)n1` [Compound 58]: the EC50 (Ca2+ assay as described in D.1) was 269 nM.

Consider `Cc1cc(-c2ccc(N3CCO[C@@H](C(F)(F)F)C3)c(F)c2CNC(=O)CC2CC2)cc(C)n1` [Compound 59], for which the EC50 (Ca2+ assay as described in D.1) is 83.2 nM.

Take `Cc1cc(-c2ccc(N3CCO[C@H](C(F)(F)F)C3)c(F)c2CNC(=O)CC2CC2)cc(C)n1` [Compound 64]: where the note is “Ca2+ assay as described in D.1”, the EC50 is 309 nM.

As to `Cc1cc(-c2ccc(N3CCO[C@H](C(F)(F)F)C3)c(F)c2CNC(=O)C(C)C)cc(C)n1` [Compound 65], the EC50 (Ca2+ assay as described in D.1) is 575 nM.

Turning to `Cc1cc(-c2ccc(N3CCO[C@H](C(F)(F)F)C3)c(F)c2CNC(=O)c2conc2C)cc(C)n1` [Compound 66], the Emax came out at 649%. Further, for the setting “Ca2+ assay as described in D.1”, the EC50 is 398 nM.

For the compound `Cc1cc(-c2ccc(N3CCO[C@H](C(F)(F)F)C3)c(F)c2CNC(=O)c2cc(C)on2)cc(C)n1` [Compound 67], the EC50 (Ca2+ assay as described in D.1) was 347 nM.

With `Cc1cc(-c2ccc(N3CCO[C@H](C(F)(F)F)C3)c(F)c2CNC(=O)CC(C)C)cc(C)n1` [Compound 68], the EC50 (Ca2+ assay as described in D.1) was 132 nM.

As to `Cc1cc(-c2ccc(N3CCO[C@H](C(F)(F)F)C3)c(F)c2CNC(=O)C2CC2)cc(C)n1` [Compound 69], for the setting “Ca2+ assay as described in D.1”, the EC50 was 776 nM.

For the compound `Cc1cc(-c2ccc(N3CCO[C@H](C(F)(F)F)C3)c(F)c2CNC(=O)CC2CCC2)cc(C)n1` [Compound 70], the EC50 (Ca2+ assay as described in D.1) is 115 nM.

As for `Cc1cc(-c2ccc(N3CCO[C@@H](C(F)(F)F)C3)c(F)c2CNC(=O)CC2CCC2)cc(C)n1` [Compound 71], the EC50 (Ca2+ assay as described in D.1) is 32.4 nM.

On to `Cc1cc(-c2ccc(N3CCO[C@@H](C(F)(F)F)C3)c(F)c2CNC(=O)CC(C)C)cc(C)n1` [Compound 72], for which the EC50 (Ca2+ assay as described in D.1) was 14.8 nM.

As for `Cc1cc(-c2ccc(N3CCO[C@@H](C(F)(F)F)C3)c(F)c2CNC(=O)C2CC2)cc(C)n1` [Compound 73], the Emax is 878%. Besides, the EC50 (Ca2+ assay as described in D.1) is 741 nM.

On to `Cc1cc(-c2c(F)cc(N3C[C@@H](C)O[C@@H](C)C3)cc2CNC(=O)CC2CC2)cc(C)n1` [Compound 74], for which the Emax stood at 508%. In addition, the EC50 (Ca2+ assay as described in D.1) is 11.2 nM.

Regarding `Cc1cc(-c2c(F)cc(N3C[C@@H](C)O[C@@H](C)C3)cc2CNC(=O)c2cc(C)on2)cc(C)n1` [Compound 75], the EC50 (Ca2+ assay as described in D.1) is 209 nM.

With `Cc1cc(-c2c(F)cc(N3C[C@@H](C)O[C@@H](C)C3)cc2CNC(=O)c2conc2C)cc(C)n1` [Compound 76], the Emax worked out at 572%. For the same compound, the EC50 (Ca2+ assay as described in D.1) was approximately 38 nM.

For `Cc1cc(-c2c(F)cc(N3C[C@@H](C)O[C@@H](C)C3)cc2CNC(=O)CC(F)(F)F)cc(C)n1` [Compound 77], the Emax (Ca2+ assay as described in D.1) is 136%.

Take `Cc1cc(-c2c(F)cc(N3C[C@@H](C)O[C@@H](C)C3)cc2CNC(=O)C(C)C)cc(C)n1` [Compound 78]: the Emax was 707%. The EC50 (Ca2+ assay as described in D.1) was 21.9 nM.

Regarding `Cc1cc(-c2c(F)cc(N3C[C@@H](C)O[C@@H](C)C3)cc2CNC(=O)C2CC2)cc(C)n1` [Compound 79], the Emax turned out to be 381%. The EC50 (Ca2+ assay as described in D.1) was 17.4 nM.

In the case of `Cc1cc(-c2c(F)cc(N3C[C@@H](C)O[C@@H](C)C3)cc2CNC(=O)CC2CCC2)cc(C)n1` [Compound 80], the EC50 (Ca2+ assay as described in D.1) is 6.17 nM.

As for `Cc1cc(-c2c(F)cc(N3C[C@@H](C)O[C@@H](C)C3)cc2CNC(=O)CCC(F)(F)F)cc(C)n1` [Compound 81], where the note is “Ca2+ assay as described in D.1”, the EC50 is 5.37 nM.

`Cc1cc(-c2c(F)cc(N3C[C@@H](C)O[C@@H](C)C3)cc2CNC(=O)CC(C)C)cc(C)n1` [Compound 83]: the Emax is 906%. Besides, under “Ca2+ assay as described in D.1”, the EC50 was 7.08 nM.

On to `Cc1cc(-c2c(F)cc(N3C[C@@H](C)O[C@@H](C)C3)cc2CNC(=O)CC(C)(C)C)cc(C)n1` [Compound 84], for which the Emax was determined as 686%. The EC50 (Ca2+ assay as described in D.1) was 9.33 nM.

As to `Cc1cc(-c2c(F)cc(N3C[C@@H](C)O[C@@H](C)C3)cc2CNC(=O)C2CCC2)cc(C)n1` [Compound 85], the Emax turned out to be 954%. Further, the EC50 (Ca2+ assay as described in D.1) is 6.17 nM.

For the compound `Cc1cc(-c2c(F)cc(N3C[C@@H](C)O[C@@H](C)C3)cc2CNC(=O)CC2CC2)ccn1` [Compound 87], for the setting “Ca2+ assay as described in D.1”, the EC50 was 79.4 nM.

For the compound `Cc1cc(-c2c(F)cc(N3C[C@@H](C)O[C@@H](C)C3)cc2CNC(=O)c2cc(C)on2)ccn1` [Compound 90], the EC50 (Ca2+ assay as described in D.1) is 525 nM.

As for `Cc1cc(-c2c(F)cc(N3C[C@@H](C)O[C@@H](C)C3)cc2CNC(=O)CC(C)C)ccn1` [Compound 92], the EC50 (Ca2+ assay as described in D.1) is 12.6 nM.

Consider `Cc1cc(-c2c(F)cc(N3CCCC(C(F)(F)F)C3)cc2CNC(=O)C(C)C2CC2)cc(C)n1` (stereo not drawn) [Compound 93], for which the Emax was determined as 736%. Besides, the EC50 (Ca2+ assay as described in D.1) was 36.3 nM.

For the compound `Cc1cc(-c2c(F)cc(N3CCCC(C(F)(F)F)C3)cc2CNC(=O)c2cc(C)on2)cc(C)n1` (stereo not drawn) [Compound 94], the Emax was 428%. Further, the EC50 (Ca2+ assay as described in D.1) is 195 nM.

`Cc1cc(-c2c(F)cc(N3CCCC(C(F)(F)F)C3)cc2CNC(=O)CC2CC2)cc(C)n1` (stereo not drawn) [Compound 95]: the Emax came out at 427%. In addition, the EC50 (Ca2+ assay as described in D.1) was 27.5 nM.

Turning to `Cc1cc(-c2c(F)cc(N3CCCC(C(F)(F)F)C3)cc2CNC(=O)C(C)C)cc(C)n1` (stereo not drawn) [Compound 96], the Emax (Ca2+ assay as described in D.1) came out at 148%.

With `Cc1cc(-c2c(F)cc(N3CCCC(C(F)(F)F)C3)cc2CNC(=O)C2CC2)cc(C)n1` (stereo not drawn) [Compound 97], the Emax amounted to 330%. In addition, for the setting “Ca2+ assay as described in D.1”, the EC50 was 19.5 nM.

With `Cc1cc(-c2c(F)cc(N3CCCC(C(F)(F)F)C3)cc2CNC(=O)c2conc2C)cc(C)n1` (stereo not drawn) [Compound 98], the Emax (Ca2+ assay as described in D.1) was determined as 119%.

For `Cc1cc(-c2c(F)cc(N3CCO[C@@H](C(F)(F)F)C3)cc2CNC(=O)CC(C)C)cc(C)n1` [Compound 101], the EC50 (Ca2+ assay as described in D.1) is less than 10 nM.

The record behind these values is EP2678315B1, “(Pyridin-4-yl)benzylamides as allosteric modulators of alpha 7 nAChR” (Janssen Pharmaceutica, N.V., priority 2011, dated 2012).
